US9815851B2, “Pyrrolo carboxamides as modulators of orphan nuclear receptor RAR-related orphan receptor-gamma (RORγ, NR1F3) activity and for the treatment of chronic inflammatory and autoimmune diseases” (PHENEX PHARMACEUTICALS AG, priority 2011, dated 2017)
Read-outs that look alike come from different tables or passages of the source.

Legend:
[1] = target: T1, RORγ ligand binding domain (LBD) (Homo sapiens, UniProt P51449); experiment: TR-FRET Activity Assay (ligand sensing, RORγ-LBD / coactivator peptide interaction, LANCE); type: biochemical
T1 construct: made in house; host or cells: E. coli BL-21 (BL3), vector pDEST15
T1 sequence (P51449 269-508 limits assumed): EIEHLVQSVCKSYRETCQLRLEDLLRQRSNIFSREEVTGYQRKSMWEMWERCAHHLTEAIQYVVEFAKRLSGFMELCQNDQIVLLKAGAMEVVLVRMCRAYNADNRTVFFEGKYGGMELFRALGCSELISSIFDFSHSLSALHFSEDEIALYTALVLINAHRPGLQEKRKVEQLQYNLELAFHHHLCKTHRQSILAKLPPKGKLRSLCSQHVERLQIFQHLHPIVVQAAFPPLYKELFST

RORγ = target: T2, RORγ (UniProt P51449); experiment: RORγ Gal4 Reporter Gene Assay in 293T cells (firefly and renilla luciferase); type: cell-based, human
T2 sequence (P51449 1-518): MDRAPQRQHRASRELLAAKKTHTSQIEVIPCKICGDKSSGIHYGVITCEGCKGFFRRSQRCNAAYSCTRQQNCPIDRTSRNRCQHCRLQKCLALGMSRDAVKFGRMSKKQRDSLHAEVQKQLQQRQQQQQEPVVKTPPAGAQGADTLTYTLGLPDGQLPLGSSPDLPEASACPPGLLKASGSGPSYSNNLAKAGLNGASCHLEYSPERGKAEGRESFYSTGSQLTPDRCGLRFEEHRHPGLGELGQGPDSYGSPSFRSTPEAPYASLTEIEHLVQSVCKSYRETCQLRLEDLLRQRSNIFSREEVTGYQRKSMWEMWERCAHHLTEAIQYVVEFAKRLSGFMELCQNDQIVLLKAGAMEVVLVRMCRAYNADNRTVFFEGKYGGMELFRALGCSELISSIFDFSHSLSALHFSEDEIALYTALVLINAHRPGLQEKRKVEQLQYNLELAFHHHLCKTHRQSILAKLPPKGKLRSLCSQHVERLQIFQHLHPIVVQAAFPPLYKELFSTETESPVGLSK

[2] = first value of the cell FRET/FF/REN, TR-FRET activity assay, read-out: pIC50 (FRET) (converted)
[3] = second value of the cell, Gal4 reporter gene assay in 293T cells, firefly luciferase
[4] = third value of the cell, Gal4 reporter gene assay in 293T cells, renilla normalised luciferase

Row | Compound | IC50 [1, 2] [nM] | pIC50 (FF) (RORγ; [3]) | pIC50 (REN) (RORγ; [4]) | IC50 [1] [nM] | pIC50 (FF) (RORγ) | pIC50 (REN) (RORγ)
1 | Cc1c(C(=O)NCCCCCO)cc(-c2ccc(S(=O)(=O)NC(C)(C)C)c(C(C)(C)C)c2)n1CC1CCCCC1 [1/128] | 501 | 7.2 | 7.2 | – | – | –
2 | Cc1c(C(=O)NC2COC2)cc(-c2cc(C(=O)N3CCCCC3)c3ccccn23)n1CC1CCCCC1 [Example 10/1] | 15800 | 6.7 | 6.6 | – | – | –
3 | Cc1c(C(=O)N2CC(O)C2)cc(-c2ccc(S(=O)(=O)NC(C)(C)C)c(C(C)(C)C)c2)n1CC1CCCCC1 [17/94] | 1260 | 6.8 | 6.7 | – | – | –
4 | Cc1c(C(=O)N[C@H]2C[C@H](C(=O)O)C2)cc(-c2ccc(S(=O)(=O)NC(C)(C)C)c(C(C)(C)O)c2)n1CC1CCCCC1 [17/328] | 501 | 6.6 | 6.6 | – | – | –
5 | CC(=O)c1cc(-c2cc(C(=O)NC3CCOCC3)c(C)n2CC2CCCCC2)cc(C(C)(C)C)c1 [17/103] | – | – | – | 794 | 6.1/6.7/6.8 | 6.1/6.7/6.8
6 | Cc1c(C(=O)NCC2CC2)cc(-c2cc(C(C)(C)C)c3c(c2)C2(CCO3)CC2)n1CC1CCCCC1 [1/102] | 501 | 6.4 | 6.4 | – | – | –
7 | Cc1c(C(=O)NCCCCCS(C)(=O)=O)cc(-c2cc(C(C)(C)C)c3c(c2)C2(CCO3)CC2)n1CC1CCCCC1 [17/4] | – | – | – | 631 | 6.2/6.7/6.7 | 6.2/6.7/6.7
8 | Cc1c(C(=O)NCCCCC[S+](C)[O-])cc(-c2cc(C(C)(C)C)c3c(c2)C2(CCO3)CC2)n1CC1CCCCC1 (stereo not drawn) [17/79] | – | – | – | 1580 | 5.8/6.4/6.3 | 5.8/6.4/6.3
9 | Cc1c(C(=O)N[C@H]2C[C@H](C(=O)O)C2)cc(-c2cc(C(=O)NCC(F)(F)F)cc(C3(C)CC3)c2)n1CC1CCCCC1 [17/357] | 2000 | 6.7 | 6.8 | – | – | –
10 | CC(C)(C)NS(=O)(=O)c1ccc(-c2cc(C(=O)NC3CCOCC3)c(F)n2CC2CCCCC2)cc1C(C)(C)C [Example 20, 5-(3-(tert-Butyl)-4-(N-(tert-butyl)sulfamoyl)phenyl)-1-(cyclohexylmethyl)-2-fluoro-N-(tetrahydro-2H-pyran-4-yl)-1H-pyrrole-3-carboxamide] | 398 | 7.4 | 7.5 | – | – | –
11 | Cc1c(C(=O)NC2COC2)cc(-c2cc(C(C)(C)C)cc(C(C)(C)C)c2)n1S(=O)(=O)N1CCCC(C)C1 (stereo not drawn) [7/2] | – | – | – | 251 | 6.6/7.0/7.0 | 6.6/7.0/7.0
12 | Cc1c(C(=O)NCC(C)(C)O)cc(-c2cc(C(=O)NC(C)(C)C)cc(C3(C)CC3)c2)n1CC1CCCCC1 [1/111] | – | – | – | 398 | 6.4/7.4/7.4 | 6.4/7.4/7.4
13 | Cc1c(C(=O)NCC(C)(C)NS(C)(=O)=O)cc(-c2cc(C(C)(C)C)cc(C(C)(C)C)c2)n1CC1CCCCC1 [1/4] | – | – | – | 316 | 6.5/7.5/7.6 | 6.5/7.5/7.6
14 | Cc1c(C(=O)N[C@H]2C[C@H](C(=O)O)C2)cc(-c2cc(C(=O)NC(C)(C)C)cc3ccccc23)n1CC1CCCCC1 [17/189] | 5010 | 6.3 | 6.3 | – | – | –
15 | Cc1c(C(=O)NC2CCOCC2)cc(-c2ccc(C(=O)NC(C)(C)C)c(C(F)(F)F)c2)n1CC1CCCCC1 [6/8] | – | – | – | 10000 | 5.0/6.8/7.3 | 5.0/6.8/7.3
16 | Cc1c(C(=O)NCCC(C)(C)C(=O)O)cc(-c2cc(C(C)(C)C)cc(C(F)(F)F)c2)n1CC1CCCCC1 [17/305] | – | – | – | 2000 | 5.7/6.8/6.7 | 5.7/6.8/6.7
17 | Cc1c(C(=O)NCC(C)(C)O)cc(-c2cc(C(=O)N(C)C(C)(C)C)cc(C3(C)CC3)c2)n1CC1CCCCC1 [1/110] | 794 | 7.3 | 7.4 | – | – | –

Row | Compound | IC50 [1, 2] [nM] | pIC50 (FF) (RORγ; [3]) | pIC50 (REN) (RORγ; [4]) | IC50 [1] [nM] | pIC50 (FF) (RORγ) | pIC50 (REN) (RORγ)
18 | Cc1c(C(N)=O)cc(-c2ccc(S(=O)(=O)NC(C)(C)C)c(C(C)(C)C)c2)n1CC1CCCCC1 [1/13] | 1260 | 6.2 | 6.1 | – | – | –
19 | Cc1c(C(=O)NCCCCN2CCOCC2)cc(-c2cc(C(C)(C)C)cc(C(C)(C)C)c2)n1CC1CCCCC1 [1/74] | – | – | – | 5010 | 5.3/<4.7/<4.7 | 5.3/<4.7/<4.7
20 | Cc1c(C(=O)NC2CCOCC2)cc(-c2ccc(S(=O)(=O)NCC3(C)COC3)c(C(F)(F)F)c2)n1CC1CCCCC1 [17/147] | 794 | 6.7 | 6.7 | – | – | –
21 | Cc1c(C(=O)NCC(C)(C)O)cc(-c2cccc3c(S(=O)(=O)NC(C)(C)C)cccc23)n1CC1CCCCC1 [17/76] | 2000 | 6.9 | 6.9 | – | – | –
22 | Cc1c(C(=O)NCC2CCS(=O)(=O)C2)cc(-c2cc(C(C)(C)C)c3c(c2)C2(CCO3)CC2)n1CC1CCCCC1 (stereo not drawn) [17/12] | 200 | 7.2 | 7.4 | – | – | –
23 | Cc1c(C(=O)NCC2(C)COC2)cc(-c2cc(C(C)(C)C)cc(C3(C)CC3)c2)n1CC1CCCCC1 [1/86] | 158 | 7.6 | 7.6 | – | – | –
24 | Cc1c(C(=O)NC2CCOCC2)cc(-c2ccc(S(=O)(=O)NC(C)(C)C(F)(F)F)c(C(F)(F)F)c2)n1CC1CCCCC1 [17/160] | – | – | – | 200 | 6.7/7.8/8.0 | 6.7/7.8/8.0
25 | Cc1c(C(=O)NC2COC2)cc(-c2ccc(C(=O)N3CCCCC3)c(C(C)(C)C)c2)n1CC1CCCCC1 [1/34] | 1260 | 6.8 | 6.7 | – | – | –
26 | Cc1c(C(=O)NCC(C)(C)O)cc(-c2cc(C(C)(C)C)cc(S(=O)(=O)N(C)C(C)(C)C)c2)n1CC1CCCCC1 [9/3] | 316 | 7.1 | 7.1 | – | – | –
27 | Cc1c(C(=O)N[C@H]2CC[C@@H](C(=O)O)CC2)cc(-c2cc(C(C)(C)C)c3c(c2)C2(CCO3)CC2)n1CC1CCCCC1 [17/58] | 1580 | 6.7 | 6.7 | – | – | –
28 | Cc1c(C(=O)NC2COC2)cc(-c2cc(C(C)(C)C)cc(C(C)(C)C)c2)n1CC1CCC(C)CC1 (stereo not drawn) [1/114] | 251 | 6.7 | 6.8 | – | – | –
29 | Cc1c(C(=O)NCC(C)(C)NC(=O)C(C)O)cc(-c2cc(C(C)(C)C)cc(C3(C)CC3)c2)n1CC1CCCCC1 (stereo not drawn) [17/121] | 316 | 7.6 | 7.7 | – | – | –
30 | Cc1c(C(=O)NC2CCOCC2)cc(-c2ccc(S(=O)(=O)NC(C)(C)CF)c(C(F)(F)F)c2)n1CC1CCCCC1 [18/5] | – | – | – | 631 | 6.2/7.5/7.5 | 6.2/7.5/7.5
31 | Cc1c(C(=O)NCCN2CCOCC2)cc(-c2cc(C(C)(C)C)cc(C(C)(C)C)c2)n1CC1CCCCC1 [1/70] | – | – | – | 631 | 6.2/6.6/6.6 | 6.2/6.6/6.6
32 | Cc1c(C(=O)N2CC3(CCOCC3)C2)cc(-c2ccc(S(=O)(=O)NC(C)(C)C)c3ccccc23)n1CC1CCCCC1 [17/266] | 251 | 8.3 | 8.5 | – | – | –
33 | Cc1c(C(=O)NCCC(C)(C)C(=O)O)cc(-c2ccc(S(=O)(=O)NC(C)(C)C)c3ccccc23)n1CC1CCCCC1 [17/241] | 1260 | 7.7 | 7.8 | – | – | –
